Key:
Format in all cases: in vivo, rat
testosterone = test: Serum testosterone levels (Testosterone EIA) of immunized rats
Experimental: (§1) The sulpho-lipo based adjuvants were tested in different doses varying from 0.008-8 mg per dose. The adjuvants were tested in combination with a GnRH-KLH conjugate with 0.7 μg conjugated GnRH per dose. Adjuvanticity of the adjuvants was compared with the positive control adjuvant, sulpho-lipo-sucrose (disaccharide with one sulphate ester group and seven lauroyl acid ester groups, S1L7-Su) and with negative control adjuvant consisting of an squalane-in-water emulsion without saccharide compound and one group receiving PBS only.
(§2) Male Wistar rats, 10 weeks of age, were housed with 3 rats per cage. Rats had ad libitum access to food en water. Rats were immunized at day 0, 14 and 28, according to the experimental design (Table 2) with 400 μl vaccine comprising 200 μl water phase and 200 μl adjuvant. Two intramuscular injections (100 μl each) were injected at the left and right inner thigh and 2×100 μl was injected subcutaneously in the neck region. Each group consists of 5 rats.
(§3) Blood samples for serum were collected from all animals prior to the immunizations and at day 41 and 56
Serum testosterone levels were measured using a commercially available Testosterone EIA (Beckman Coulter, Woerden, The Netherlands) according to the instructions of the manufacturer.

GnRH = GnRH specific antibody titers by ELISA in serum of rats immunized with GnRH-KLH conjugate plus adjuvant; conditions: for GnRH antibody titers, dose dependence: male Wistar rats, adjuvant 0.008-8 mg per dose, GnRH-KLH conjugate, FIG. 4A-B; for GnRH antibody titers versus squalane emulsion only (NS): rats that received 8 mg saccharide compound, FIG. 4C; for GnRH antibody titers versus adjuvant without saccharide (NS, group 11): rats treated with 0.08-8 mg sulpho-lipo-trisaccharide
Experimental: as §1
Vaccines 1-13 were formulated by adding equal volume of adjuvant (comprising the saccharide compounds as shown in table 2) to the water phase (containing 0.7 μg conjugated GnRH). Vaccine 14 consists of PBS only. The following vaccines were prepared:
as §2, §3
GnRH specific antibodies were measured by ELISA. Plates (96 wells) were precoated with 0.2% glutardialdehyde in phosphate buffer (pH 5) for 3 hours at room temperature, washed with 0.1 M phosphate buffer (pH 8) and coated with 100 μl per well of a solution containing 10 μg GnRH (Pepscan Presto, Lelystad, The Netherlands) per ml phosphate buffer (pH 8) and incubated for 3 hours at 37° C. Coated plates were washed with 0.05% Tween-80. Serum samples were diluted (1/10) in PEM (1% Tween-80 with 4% horse serum). This dilution was further diluted in the 96-well plate (100 μl per well, 8 steps) and incubated 1 hour at 37° C. After washing with 0.05% Tween-80, 100 μl of goat-anti-rat antiserum conjugated with peroxidase in PEM was added to the wells. Plates were incubated for 1 h at 37° C. and washed 12 times with 0.05% Tween-80. Subsequently, 150 μl of a substrate solution containing 2,2-azino-bis-(3-benzthiazoline-6-sulphonic acid) (ABTS) plus H2O2 was added to the wells of the plates. Plates were incubated for 45 minutes at ambient room temperature and absorbance was measured at 405 nm. Antibody titer was expressed as the 10 log of the dilution factor that gives an optical density of 4 times background (approx. 100).

[1] = Rise of mean body temperature (rectal) after immunization; conditions: 8 mg; for Mean body temperature (MBT): FIG. 6C
Experimental: as §2
At least once daily clinical observations were made in all animals. Mean body temperature (MBT) was determined for all animals before and after each immunization by rectal temperature. Mean body temperature per group (MBT) are depicted as to preimmunization levels FIG. 6.

[2] = Injection site reactions (tissue swelling) after immunization; conditions: 8 mg
Experimental: as §2
Before vaccination the injection sites were assessed for the presence of abnormalities or existing local reactions. If such abnormalities or local reactions were absent, the animal was injected on that site. After each immunization, injection sites were inspected for tissue swelling. Size of subcutaneous injection sites was measured (diameter in mm). Since the intramuscular injection site reactions in the hind leg is difficult to determine, only the presence of intramuscular injections sites (tissue swelling) was determined and expressed in arbitrary values (present=10 mm, not present=0 mm) Scores of injection site reactions were added up per rat for the four injection sites at each inspection, means per group were calculated The results thereof are presented in FIG. 7.

[3] = from 0.08 mg sulpho-lipo-trisaccharide onwards, FIG. 5A-B

Sulpho-Lipo-Raffinose [Example S1L10-Ra]
Serum testosterone levels (testosterone; [3]): dramatic decline of serum testosterone levels | GnRH antibody titers, dose dependence (GnRH): dose dependent antibody titers against GnRH | GnRH antibody titers versus squalane emulsion only (NS) (GnRH): substantially higher | GnRH antibody titers versus adjuvant without saccharide (NS, group 11) (GnRH): substantially higher

CCCCCCCCCCCC(=O)OC[C@H]1O[C@H](OC[C@H]2O[C@H](O[C@]3(COC(=O)CCCCCCCCCCC)O[C@H](COC(=O)CCCCCCCCCCC)[C@@H](OC(=O)CCCCCCCCCCC)[C@@H]3OC(=O)CCCCCCCCCCC)[C@H](OC(=O)CCCCCCCCCCC)[C@@H](OC(=O)CCCCCCCCCCC)[C@@H]2OC(=O)CCCCCCCCCCC)[C@H](OC(=O)CCCCCCCCCCC)[C@@H](OC(=O)CCCCCCCCCCC)[C@H]1OC(=O)CCCCCCCCCCC [Example L11-Ra, Lipo-Raffinose]
Serum testosterone levels (testosterone; 8 mg, FIG. 5C): induced decreasing testosterone levels | Mean body temperature (MBT), any increase ([1]; after immunization): did not induce any increase in MBT | Adverse effects at the site of injection [2]: did not induce any adverse effects at the site of injection | GnRH antibody titers versus squalane emulsion only (NS) (GnRH): substantially higher

sulpho-lipo-sucrose [Example S1L7-Su-8]
Mean body temperature (MBT) ([1]; 3 hours post vaccination): slightly higher increase in MBT than the trisaccharide compounds | Mean body temperature (MBT) ([1]; 21 hours after vaccination): still increased | Injection site reactions at final inspection ([2]; 5 days after immunization): still significant injection site reactions were present | Injection site reactions, course of size ([2]; FIG. 7C): increased in size up to day 4 | Injection site reactions, size relative to sulpho-lipo-trisaccharides ([2]; FIG. 7C): more than 4 times

Sulpho-Lipo-Maltotriose [Example S1L10-Ma]
Serum testosterone levels (testosterone; [3]): dramatic decline of serum testosterone levels | GnRH antibody titers, dose dependence (GnRH): dose dependent antibody titers against GnRH | GnRH antibody titers versus squalane emulsion only (NS) (GnRH): substantially higher | GnRH antibody titers versus adjuvant without saccharide (NS, group 11) (GnRH): substantially higher
